Consider three compounds from patent US5330992A, “1-cyclopropyl-4-pyridyl-quinolinones” (priority 1992, dated 1994).

Molecules are shown by their SMILES.

Data set [1] in a line: In vivo antitumor assay, B16(ip). Also noted: species or system mouse. To be noted: mouse, in vivo, drug route ip, qd 1,5,9. An excerpt:
(§1) Mice: Inbred: C3H/He and NCR-nu; and Hybrids: B6D2Fl (C57BL/6 females X DBA/2 males, CD2Fl (Balb/c females X DBS/2 males) and B6x C3fl (C57BL/6 x C3H) were bred at Wayne State University from strained obtained from the Frederick Cancer Research Facility, Frederick, Md. or purchased from commercial suppliers.
(§2) Tumors: Murine Tumor: P388 and an adriamycin-resistant (ADR) subline P388/ADR leukemia and the following transplantable solid tumors of mice were used for in Vivo testing: B16 melanoma (B16), pancreatic ductal adenocarcinoma No. 03 (Panc 03), colon adenocarcinoma No. 38 (colo 38), mammary ductal adenocarcinoma No. 16/C (Mam16) and an adriamycin-resistantsubline Mam16C/ADR. Human tumor: A single human tumor, mammary carcinoma MX-1 (MX1) was used for in vivo testing. All tumors are in the Developmental Therapeutics Program frozen tumor respository, maintained by the Biological Testing Branch, Frederick Md. Each has a detailed description, code identification number, and list of references at the National Tumor Repository. Murine tumors were maintained in the mouse strain of origin and were transplanted in the appropriate F1 hydrid (or the strain of origin) for therapy trials. Human mammary carcinoma MX-1 MX1) was maintained as a subcutaneous implant in either athymic Swiss (Cr: NIH(S)-nu) or athymic random bred (NCR-nu) mice and transplanted in NCR-nu for therapy trials.
(§3) For P388 and P388/ADR leukemia studies the tumor cells were implanted either IP or intravenously (IV) on day zero and treatment was started on day one. For B16 melanoma (B16) studies, the tumor cells were implanted IP on day zero and treatment was started on day one. Tirered controls were also included to facilitate the calculation of tumor cell kill. For mammary carcinoma MX-1 studies, tumors were implanted with 1) subcutaneously (sc) (14-mg fragment of s.c. donor tumor) in the axillary region or 2) under the subrenal capsule (src) (10×10×10 ocular micrometer unit fragment of s.c. donor tumor). Treatment started on the day after subrenal capsule tumor implant or when the subcutaneous tumor implant had reached 100-700 mg.
(§4) Quantitative end points used assess antitumor activity included % Increased Life Span (% ILS), Tumor Cell Kill (Log10 kill), and Tumor Growth Inhibition (T/C). Long Term Survivors (45 or 60 day) were excluded from calculations of % ILS and Tumor Cell Kill.
(§5) Endpoints were calculated as follows: % ILS [formula] where Dt is the median day of death for treated and Dc is the median day of death for control groups. A % ILS ≥20 or ≥25 for P388 and B16 intraperitoneal models, respectively, is indicative of a significant degree of antitumor activity. A % ILS ≥75 or ≥50 for P388 and B16 intraperitoneal models, respectively, is indicative of a high degree of antitumor activity and is the level used by National Cancer Institute to justify further development if other requirements are met (termed DN-2 level activity). Minimum quantitative activity limits for additional P388 models (e.g. P388/ADR and P388, IJV) have not been defined. However, the activity limits specified for the intraperitoneal models may be applied as in the majority of instances these models are found to be signficantly […] challenging.
(§6) The log10 cell kill was calculated from the following formula: [formula] where T-C is the tumor difference in the median day of death between the treated (T) and the control (C) groups and Td is the tumor doubling time (in days), the latter estimated from the best fit straight line from a log-linear growth plot of the control-group tumors in exponential growth. The conversion of the T-C values to log10 cell kill is possible because the Td for tumors regrowing post-treatment approximated the Td values of the tumors in untreated control mice.

The test system of a further data set is B16 melanoma (B16). In words: In vivo antitumor assay, B16(ip). To be noted: drug route ip; for ILS %: qd 1,5,9, increased life span; for LOG KILL: qd 1,5,9, log10 cell kill. Also noted: species or system mouse.
Description: as §1, §2, §3, §4, §5, §6

A short description of data set [2]: In vivo antitumor assay, P388(ip). To be noted: mouse, in vivo.
Description: as §1, §2, §3, §4, §5, §6

Another data set concerns P388 leukemia. In words: In vivo antitumor assay, P388(ip). To be noted: P388(ip), qd 1,5,9; for ILS %: increased life span; for LOG KILL: log10 cell kill.
Description: as §1, §2, §3, §4, §5, §6

A short description of data set [3]: In vivo antitumor assay, MX1(src). Details: species or system human tumor in athymic NCR-nu mice. To be noted: mouse, in vivo, drug route ip, qd 1,5,9.
Description: as §1, §2, §3, §4
(§7) Tumors were measured with a caliper once or twice weekly (as needed) until either tumors exceeded 1600 mg or cure was assured. Tumor weights were estimated from two-dimensional measurements: Tumor Weight (mg)=(a×b^2) / 2, where a and b are the tumor length and width (nun) respectively. Measurements were carried out simultaneously in both treatment and control groups. When the control group tumors reached approximately 750-1500 mg in size (median of group), the median tumor weight of each group was determined (including zeros). The T/C value in percent is an indiation of antitumor effectiveness. The % T/C was calculated from the following formula for solid murine tumor models: [formula] where T and C are median tumor weights of the treatment and control groups, respectively. A T/C equal to or less than 42% is considered significant antitumor activity. A T/C value <10% is indicative of a high degree of antitumor activity and is the level used by National Cancer Institute to justify further development if other requirements are met (termed DN-2 level activity). By convention the T/C value for the mammary carcinoma MX-1 models is calculated by the parameter of change in tumor weight. The % T/C was calculated from the following formula for MX-1 models [formula] where ΔT and ΔC are the change in mean tumor weight of the test and control groups, respectively, and T (initial) is the initial mean tumor weight of the test group. […] A reproducible % T/C ≤10 is considered significant activity.

Data set [4] concerns human mammary carcinoma MX-1 (MX1). Description: In vivo antitumor assay, MX1(src). Details: species or system human tumor in athymic NCR-nu mice. To be noted: drug route ip, qd 1,5,9, change in mean tumor weight.
Description: as §1, §2, §3, §4, §7

Setting [5] is: P388(ip), drug route ip, qd 1,5,9.
Where [6] appears, read: P388(ip), drug route iv, qd 1,5,9.

In the case of `Cc1cc(-c2c(F)cc3c(=O)c(Cc4c(O)cccc4O)cn(C4CC4)c3c2F)cc(C)n1` [Example 26, 1-Cyclopropyl-6,8-difluoro-7-[2,6-dimethyl-4-pyridinyl]-3-[2,6-dihydroxyphenylmethyl]-1,4-dihydroquinoline-4-one], the MTD in data set [1] came out at 8.1 mg/kg; in data set [2] (setting [5]) it was 12 mg/kg; in data set [2] (setting [6]) it was 15 mg/kg; in data set [3], 8.1 mg/kg. In addition, the ILS % in the data set on B16 melanoma (B16) was found to be 94%; in the data set with P388 leukemia (drug route ip), 100%; in the data set with P388 leukemia (drug route iv), 80%. The figures for the “LOG KILL” value in the data set with B16 melanoma (B16), in the data set on P388 leukemia (drug route ip) and in the data set on P388 leukemia (drug route iv) were 2.2, 7.3 and 5.8, respectively. For the same compound, the T/C % in data set [4] was 20%.

Take `Cc1cc(-c2c(F)cc3c(=O)c(Cc4ccccc4O)cn(C4CC4)c3c2F)cc(C)n1` [Example 30]: the MTD in data set [1] worked out at 304 mg/kg; in data set [2] (setting [5]) it was 456 mg/kg; in data set [2] (setting [6]), 120 mg/kg; in data set [3], 304 mg/kg. In addition, the ILS % is 88% with B16 melanoma (B16), 120% in the data set on P388 leukemia (drug route ip) and 20% in the data set with P388 leukemia (drug route iv). For the same compound, the “LOG KILL” value with B16 melanoma (B16) is 2.0; with P388 leukemia (drug route ip) it was 8.8; with P388 leukemia (drug route iv) it was 1.5. In data set [4], this compound gave a T/C % of 6%.

Turning to `Cc1cc(-c2c(F)cc3c(=O)c(Cc4ccc(O)cc4O)cn(C4CC4)c3c2F)cc(C)n1` [Example 33], the MTD in data set [1] is 19 mg/kg; in data set [2] (iv), 37 mg/kg; in data set [2] (setting [5]) it was 19 mg/kg; in data set [3], 19 mg/kg. Also, the ILS % with B16 melanoma (B16) came to 94%; in the data set on P388 leukemia (drug route ip), 50%; with P388 leukemia (drug route iv), 50%. Besides, the entries for the “LOG KILL” value with B16 melanoma (B16), in the data set on P388 leukemia (drug route ip) and with P388 leukemia (drug route iv) were 2.2, 3.6 and 3.6, respectively. In data set [4], this compound had a T/C % of 8%.
